Test results from patent US11952365B2, “Anti-viral compounds” (Aligos Therapeutics, Inc., priority 2020, dated 2024).
Read-outs that look alike come from different tables or passages of the source.

Columns and labels:
HRV3C = HRV3C (Human rhinovirus 14, UniProt P03303); experiment: HRV3C protease assay (duplex, SAMDI-MS); format: biochemical, HRV
How it was run: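 Readout is SAMDI mass spectrometry: biotinylated substrates, products and internal standards were immobilized on neutravidin monolayers and product formation taken as the AUC ratio to internal standard. Reactions ran 30 min at ambient temperature after 30 min compound preincubation, in duplex with 3CLpro. IC50 values came from four-parameter curve fitting.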

[1] = system: human beta-coronavirus OC43; experiment: microbe, parasite or virus in culture; format: cell-based; conditions: Betacoronavirus 1, OC43, HeLa, 144 h, OC43 in HeLa cells, 6 days at 33° C., class symbols; read-out: EC50
[2] = Cytotoxicity plates without OC43 virus (cell-titer-glo); format: cell-based, human; conditions: human; HeLa cells without OC43 virus, class symbols
How it was run: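 Run as a virus-free counterpart of the OC43 cytopathic-effect assay. Attached HeLa cells received compound dilutions in EMEM with 2% FBS and were kept 6 days at 33 °C. Cell viability was then measured by CellTiter-Glo luminescence.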

[3] = system: SARS-CoV-2-GHB-03021/2020; experiment: SARS-CoV-2 Infection Model in Huh7 Cells; format: cell-based; conditions: Severe acute respiratory syndrome coronavirus 2, Huh-7, 96 h, SARS-CoV-2, day 4 p.i., MTS
[4] = system: SARS-CoV-2-GHB-03021/2020; experiment: microbe, parasite or virus in culture; format: cell-based; conditions: Severe acute respiratory syndrome coronavirus 2, Vero C1008, 96 h; read-out: VeroE6 + CP (EC50)
human cathepsin L = target: T1, human cathepsin L (Homo sapiens, UniProt P07711); experiment: cathepsin L assay; format: biochemical; conditions: 10 pM human cathepsin L, Z-FR-AMC 2 μM, class symbols
T1 construct: purchased R&D Systems
How it was run: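 Reactions began by adding 2 μM (final) Z-FR-AMC substrate to 10 pM human cathepsin L that had been preincubated 30 min with inhibitor. Kinetic AMC fluorescence at 355/460 nm over 30 min at 2-min intervals; four-parameter fitting gave IC50 values.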

in vitro [5] = conditions: human
in vitro [6] = conditions: African green monkey, VeroE6 + CP (CC50), Vero E6-eGFP cells with CP-100356, absence of virus, MTS
3CLpro = 3CLpro (Severe acute respiratory syndrome coronavirus 2, UniProt P0DTD1); experiment: SARS-CoV-2 3CLpro protease assay (duplex, SAMDI-MS); format: biochemical; design: For the duplex assay, 3CLpro and HRV3C was added; conditions: 3CLpro, 30 mins preincubation, class symbols; read-out: SARS-Cov-2 IC50
[7] = HRV3C, 30 mins preincubation, bound, read-out: HRV IC50
[8] = HRV3C, 30 mins preincubation, class symbols, read-out: HRV IC50
[9] = HRV IC50, HRV3C, 30 mins preincubation, class symbols

Structure (SMILES) | IC50 (HRV3C; [7]) [nM] | EC50 [1] [nM] | CC50 at 6 days [2] [µM] | EC50 ([3]; class symbols) [µM] | EC50 [4] [µM] | IC50 (human cathepsin L) [µM] | CC50 (in vitro [5]) [µM] | CC50 (in vitro [6]; class symbols) [µM] | IC50 (3CLpro) [nM] | CC50 (in vitro [6]; numeric bounds) [µM] | IC50 (HRV3C; [8]) [nM] | EC50 ([3]; numeric bounds) [µM] | IC50 (HRV3C; [9]) [nM] | IC50 (HRV3C; HRV3C, printed bound without unit, read-out: HRV IC50) [nM]
COc1cccc2[nH]c(C(=O)N3C[C@H]4[C@@H]([C@H]3C(=O)N[C@@H](C[C@@H]3CCCNC3=O)C(=O)COCc3ccccc3)C4(C)C)cc12 [Compound 49A, (1R,2S,5S)—N-[(2S)-4-(benzyloxy)-3-oxo-1-[(3S)-2-oxopiperidin-3-yl]butan-2-yl]-3-(4-methoxy-1H-indole-2-carbonyl)-6,6-dimethyl-3-azabicyclo[3.1.0]hexane-2-carboxamide] | > 10000 | 100 to 1000 | > 10 | 1 to 10 | 1 to 10 | ≥ 10 | > 10 | > 10 | 20 to 200 |  |  |  |  | 
COc1cccc2[nH]c(C(=O)N3C[C@@H]4CCC[C@@H]4[C@H]3C(=O)N[C@@H](C[C@@H]3CCNC3=O)C(=O)c3nc4ccccc4s3)cc12 [Compound 50, (1S,3aR,6aS)—N-[(2S)-1-(1,3-benzothiazol-2-yl)-1-oxo-3-[(3S)-2-oxopyrrolidin-3-yl]propan-2-yl]-2-(4-methoxy-1H-indole-2-carbonyl)-hexahydro-1H-cyclopenta[c]pyrrole-1-carboxamide] | > 10000 | 100 to 1000 | > 10 | 1 to 10 | 1 to 10 | ≥ 10 | > 10 |  | 20 to 200 | > 100 |  |  |  | 
COc1cccc2[nH]c(C(=O)N3C[C@H]4[C@@H]([C@H]3C(=O)N[C@@H](C[C@@H]3CCNC3=O)C(=O)C(N)=O)C4(C)C)cc12 [Compound 51, (3S)-3-{[(1R,2S,5S)-3-(4-methoxy-1H-indole-2-carbonyl)-6,6-dimethyl-3-azabicyclo[3.1.0]hexan-2-yl]formamido}-2-oxo-4-[(3S)-2-oxopyrrolidin-3-yl]butanamide] |  | 1000 to 10000 | > 10 |  | > 100 | 0.1 to 1 | > 100 |  | < 20 | > 100 | 200 to 2000 | > 100 |  | 
COc1cccc2[nH]c(C(=O)N3C[C@@H]4CCC[C@@H]4[C@H]3C(=O)NC(C[C@@H]3CCNC3=O)C(=O)C(=O)NC3CC3)cc12 (stereo partly drawn) [Compound 52, 3-{[(1S,3aR,6aS)-2-(4-methoxy-1H-indole-2-carbonyl)-hexahydro-1H-cyclopenta[c]pyrrol-1-yl]formamido}-N-cyclopropyl-2-oxo-4-[(3S)-2-oxopyrrolidin-3-yl]butanamide] |  | 1000 to 10000 | > 10 | 10 to 100 | 1 to 10 | ≥ 10 | > 100 |  | < 20 | > 100 | 200 to 2000 |  |  | 
COc1cccc2[nH]c(C(=O)N3C[C@@H]4CCC[C@@H]4[C@H]3C(=O)N[C@@H](C[C@@H]3CCCNC3=O)C(O)S(=O)(=O)O)cc12 (stereo partly drawn) [Compound 53, sodium (2S)-2-{[(1S,3aR,6aS)-2-(4-methoxy-1H-indole-2-carbonyl)-hexahydro-1H-cyclopenta[c]pyrrol-1-yl]formamido}-1-hydroxy-3-[(3S)-2-oxopiperidin-3-yl]propane-1-sulfonate] |  | 100 to 1000 | > 10 | < 1 | 1 to 10 | ≥ 10 | > 100 |  | < 20 | > 100 |  |  | 20 to 200 | 
COc1cccc2[nH]c(C(=O)N3C[C@@H]4CCC[C@@H]4[C@H]3C(=O)N[C@@H](C[C@@H]3CCNC3=O)C(=O)c3ncc[nH]3)cc12 [Compound 54, (1S,3aR,6aS)—N-[(2S)-1-(1H-imidazol-2-yl)-1-oxo-3-[(3S)-2-oxopyrrolidin-3-yl]propan-2-yl]-2-(4-methoxy-1H-indole-2-carbonyl)-hexahydro-1H-cyclopenta[c]pyrrole-1-carboxamide] |  | 10000 to 100000 | > 10 |  | > 100 | ≥ 10 | > 100 |  | 2000 to 20000 | > 100 |  | > 100 |  | > 10000
COc1cccc2[nH]c(C(=O)N3C[C@@H]4CCC[C@@H]4[C@H]3C(=O)NC(C[C@@H]3CCCNC3=O)C(=O)C(=O)NC3CC3)cc12 (stereo partly drawn) [Compound 55, 3-{[(1S,3aR,6aS)-2-(4-methoxy-1H-indole-2-carbonyl)-hexahydro-1H-cyclopenta[c]pyrrol-1-yl]formamido}-N-cyclopropyl-2-oxo-4-[(3S)-2-oxopiperidin-3-yl]butanamide] |  | 100 to 1000 | > 10 | 1 to 10 | 1 to 10 | ≥ 10 | > 100 |  | < 20 | > 100 | 20 to 200 |  |  | 
O=C1NCCC[C@H]1C[C@H](NC(=O)[C@@H]1[C@H]2CCC[C@H]2CN1C(=O)c1cc2ccccc2[nH]1)C(O)S(=O)(=O)O (stereo partly drawn) [Compound 58, sodium (2S)-2-{[(1S,3aR,6aS)-2-(1H-indole-2-carbonyl)-hexahydro-1H-cyclopenta[c]pyrrol-1-yl]formamido}-1-hydroxy-3-[(3S)-2-oxopiperidin-3-yl]propane-1-sulfonate] |  | 100 to 1000 | > 10 | < 1 | < 1 | 1 to 10 | > 100 |  | < 20 | > 100 |  |  | 20 to 200 | 
O=C1NCC[C@H]1C[C@H](NC(=O)[C@@H]1[C@H]2CCC[C@H]2CN1C(=O)c1cc2c(Cl)cccc2[nH]1)C(=O)CO [Compound 60, (1S,3aR,6aS)-2-(4-chloro-1H-indole-2-carbonyl)-N-[(2S)-4-hydroxy-3-oxo-1-[(3S)-2-oxopyrrolidin-3-yl]butan-2-yl]-hexahydro-1H-cyclopenta[c]pyrrole-1-carboxamide] | > 10000 | < 100 | > 10 | < 1 | < 1 | ≥ 10 | > 100 | > 10 | < 20 |  |  |  |  | 
O=C1NCC[C@H]1C[C@H](NC(=O)[C@@H]1[C@H]2CCC[C@H]2CN1C(=O)c1cc2c(Cl)cccc2[nH]1)C(=O)COCc1ccccc1 [Compound 60A, (1S,3aR,6aS)—N-[(2S)-4-(benzyloxy)-3-oxo-1-[(3S)-2-oxopyrrolidin-3-yl]butan-2-yl]-2-(4-chloro-1H-indole-2-carbonyl)-hexahydro-1H-cyclopenta[c]pyrrole-1-carboxamide] | > 10000 | < 100 | > 10 | 1 to 10 | 1 to 10 | ≥ 10 | 1 to 10 |  | 200 to 2000 | > 100 |  |  |  | 
COc1cccc2[nH]c(C(=O)N3C[C@@H]4CCC[C@@H]4[C@H]3C(=O)N[C@@H](C[C@@H]3CCNC3=O)C(=O)COP(=O)(O)O)cc12 [Compound 61, (3S)-3-1{[(1S,3aR,6aS)-2-(4-methoxy-1H-indole-2-carbonyl)-hexahydro-1H-cyclopenta[c]pyrrol-1-yl]formamido}-2-oxo-4-[(3S)-2-oxopyrrolidin-3-yl]butoxyphosphonic acid] | > 10000 | 100 to 1000 | > 10 | 1 to 10 | 1 to 10 | ≥ 10 | > 100 |  | 200 to 2000 | > 100 |  |  |  | 
COc1cccc2[nH]c(C(=O)N3C[C@@H]4CCC[C@@H]4[C@H]3C(=O)NC(C[C@@H]3CCNC3=O)C(=O)C(C)O)cc12 (stereo partly drawn) [Compound 62, (1S,3aR,6aS)—N-(4-hydroxy-3-oxo-1-((S)-2-oxopyrrolidin-3-yl)pentan-2-yl)-2-(4-methoxy-1H-indole-2-carbonyl)octahydrocyclopenta[c]pyrrole-1-carboxamide] | > 10000 | 1000 to 10000 | > 10 | 10 to 100 | 10 to 100 | ≥ 10 | > 100 | > 10 | 200 to 2000 |  |  |  |  | 
